pKi: −log10 of the molar value. Where a name gives a salt, the structure may show the parent alone. Read-outs that look alike come from different tables or passages of the source.
What was measured:
NK2 receptors [1] = biological target: T1, NK2 receptors (Rattus norvegicus, UniProt P16610); conditions: rats, literature reference; cited from earlier work
T1 construct: from tissue; host or cells: rat brain (septum/hippocampus; prefrontal cortex), living animal
T1 sequence (P16610 1-390): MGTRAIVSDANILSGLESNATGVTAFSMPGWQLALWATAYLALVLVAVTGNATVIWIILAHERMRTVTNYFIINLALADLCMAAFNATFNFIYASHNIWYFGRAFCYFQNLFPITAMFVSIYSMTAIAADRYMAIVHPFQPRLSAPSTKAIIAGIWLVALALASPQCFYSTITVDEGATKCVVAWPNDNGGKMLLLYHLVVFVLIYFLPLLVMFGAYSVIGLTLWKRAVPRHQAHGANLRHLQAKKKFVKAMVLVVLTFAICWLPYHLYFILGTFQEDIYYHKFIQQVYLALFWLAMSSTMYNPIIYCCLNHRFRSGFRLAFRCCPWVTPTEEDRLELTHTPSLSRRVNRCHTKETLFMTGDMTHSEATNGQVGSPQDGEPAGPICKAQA

[2] = biological target: T2, cloned human NK3 receptors (Homo sapiens, UniProt P29371); assay: Binding of [125I]His[MePhe7]NKB to cloned human NK3 receptors expressed by CHO cells; conditions: read-out: inhibition constant Ki, binding of [125I]His[MePhe7]NKB to cloned human NK3 receptors
T2 construct: expressed in transfected cells; host or cells: CHO cells
T2 sequence (P29371 1-465): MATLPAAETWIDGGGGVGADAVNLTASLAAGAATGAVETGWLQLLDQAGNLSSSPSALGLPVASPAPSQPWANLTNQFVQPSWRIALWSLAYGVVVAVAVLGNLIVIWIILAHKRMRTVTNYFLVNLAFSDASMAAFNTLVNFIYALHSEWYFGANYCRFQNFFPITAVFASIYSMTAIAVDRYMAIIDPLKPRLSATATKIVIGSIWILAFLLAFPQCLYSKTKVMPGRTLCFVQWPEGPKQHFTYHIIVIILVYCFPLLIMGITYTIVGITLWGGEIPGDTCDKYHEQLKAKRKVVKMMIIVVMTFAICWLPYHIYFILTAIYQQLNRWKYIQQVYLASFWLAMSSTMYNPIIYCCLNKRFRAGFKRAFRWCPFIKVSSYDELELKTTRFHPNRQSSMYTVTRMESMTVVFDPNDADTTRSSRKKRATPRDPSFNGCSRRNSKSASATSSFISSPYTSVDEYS
Experimental: The affinity of the compounds for tachykinin receptors was evaluated in vitro by several biochemical tests using radioligands: 3) The binding of [^125I]His[[…]]NKB to the cloned human NK3 receptors expressed by CHO cells (Buell et al., FEBS Letters, 1992, 299, 90-95). The tests were carried out according to X. Emonds-Alt et al. (Eur. J. Pharmacol., 1993, 250, 403-413; Life Sci., 1995, 56, PL 27-32).

[3] = biological target: T3, cloned human NK2 receptors (Homo sapiens, UniProt P21452); assay: Binding of [125I]His-NKA to cloned human NK2 receptors expressed by CHO cells; conditions: read-out: inhibition constant Ki, binding of [125I]His-NKA to cloned human NK2 receptors
T3 construct: expressed in transfected cells; host or cells: CHO cells
T3 sequence (P21452 1-398): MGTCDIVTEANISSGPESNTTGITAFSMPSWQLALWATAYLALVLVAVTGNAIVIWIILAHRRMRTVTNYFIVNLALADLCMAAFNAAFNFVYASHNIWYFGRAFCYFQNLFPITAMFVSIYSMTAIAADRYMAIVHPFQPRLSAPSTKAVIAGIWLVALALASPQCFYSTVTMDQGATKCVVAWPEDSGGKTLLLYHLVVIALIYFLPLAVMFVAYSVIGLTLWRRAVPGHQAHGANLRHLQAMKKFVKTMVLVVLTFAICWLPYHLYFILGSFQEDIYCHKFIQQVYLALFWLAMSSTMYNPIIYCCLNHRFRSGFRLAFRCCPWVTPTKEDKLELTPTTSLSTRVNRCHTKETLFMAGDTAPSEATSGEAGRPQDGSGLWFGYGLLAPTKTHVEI
Experimental: The affinity of the compounds for tachykinin receptors was evaluated in vitro by several biochemical tests using radioligands: 2) The binding of [^125I]|His-NKA to the cloned human NK2 receptors expressed by CHO cells (Y. Takeda et al., J. Neurochem., 1992, 59, 740-745). The tests were carried out according to X. Emonds-Alt et al. (Eur. J. Pharmacol., 1993, 250, 403-413; Life Sci., 1995, 56, PL 27-32). […] The inhibition constant Ki is less than or equal to 5×10^−10M.

NK3 receptor = assay: Rotating behaviour induced by intrastriatal senktide in gerbils; assay type: in vivo, gerbil
Experimental: This test was carried out according to X. Emonds-Alt et al., Life Sci., 1995, 56, PL27-PL32.

NK3 receptors [4] = biological target: T4, NK3 receptors (Cavia porcellus, UniProt P30098); assay: Haloperidol-induced increase in number of spontaneously active dopaminergic neurons in A10 region of guinea pigs; assay type: in vivo, guinea pig; conditions: haloperidol 1 mg/kg i.p., compound 0.1-1 mg/kg by the intraperitoneal route
T4 construct: from tissue; host or cells: guinea pig brain (septum/hippocampus; A10/VTA), living animal
T4 sequence (P30098 1-440): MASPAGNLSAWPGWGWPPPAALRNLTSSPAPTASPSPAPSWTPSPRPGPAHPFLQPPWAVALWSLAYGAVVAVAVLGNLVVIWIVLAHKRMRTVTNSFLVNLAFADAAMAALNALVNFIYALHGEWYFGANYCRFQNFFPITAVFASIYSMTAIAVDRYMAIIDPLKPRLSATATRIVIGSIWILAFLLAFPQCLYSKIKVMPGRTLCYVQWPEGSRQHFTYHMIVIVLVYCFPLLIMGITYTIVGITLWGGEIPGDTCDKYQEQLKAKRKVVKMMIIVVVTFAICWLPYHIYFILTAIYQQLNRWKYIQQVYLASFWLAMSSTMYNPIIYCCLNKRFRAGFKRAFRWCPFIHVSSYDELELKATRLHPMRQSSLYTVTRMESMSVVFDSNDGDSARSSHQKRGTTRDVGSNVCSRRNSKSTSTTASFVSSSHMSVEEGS
Description: This increase is mediated by the activation of the NK3 receptors by endogenous neurokinin B (C. Gueudet et al., Synapse, 1999, 33, 71-79).

NK3 receptors [5] = biological target: T4, NK3 receptors; assay: Increase in hippocampal acetylcholine release caused by NK3 agonist applied in the septum of guinea pigs; assay type: in vivo, guinea pig; conditions: 0.3-1 mg/kg by the intraperitoneal route
Description: (§1) In rats, the application of an agonist of the NK2 receptors in the septum causes an increase in the release of acetylcholine in the hippocampus (test carried out according to R. Steinberg et al., Eur. J. Neurosci., 1998, 10, 2337-2345). Likewise in guinea pigs, the local application of an agonist of the NK3 receptors in the septum causes an increase in the release of acetylcholine in the hippocampus (test carried out according to N. Marco et al., Neuropeptides, 1998, 32, 481-488).

NK2 receptors [6] = biological target: T1, NK2 receptors; assay: Constraint stress-induced increase in tissue level of DOPAC in prefrontal cortex of rats; assay type: in vivo; conditions: 1 mg/kg by the intraperitoneal route
Description: In rats, constraint stress causes an increase in the tissue level of DOPAC (3,4-dihydroxyphenyl acetic acid) in the prefrontal cortex (test carried out according to B. A. Morrow et al., Eur. J. Pharmacol., 1993, 238, 255-262).

NK2 receptors [7] = biological target: T1, NK2 receptors; assay: Increase in hippocampal acetylcholine release caused by NK2 agonist applied in the septum of rats; assay type: in vivo; conditions: 0.1-0.3 mg/kg by the intraperitoneal route
Description: as §1

NK2 receptor = assay: Rotating behaviour induced by intrastriatal [Nle10]NKA(4-10) in gerbils; assay type: in vivo, gerbil; conditions: [Nle10]NKA(4-10) intrastriatal
Experimental: In gerbils, a rotating behaviour is induced by intrastriatal administration of a specific agonist of the NK2 receptor, [Nle^10]NKA(4-10); it was observed that a unilateral application of [Nle^10]NKA(4-10) into the gerbil striatum leads to strong contralateral rotations which are inhibited by the compounds according to the invention administered either by the intraperitoneal route, or by the oral route. This test was carried out according to M. Poncelet et al., Neurosci, Lett., 1993, 149, 40-42. In this test, the compounds according to the invention are active at doses ranging from 0.1 mg to 30 mg per kg.

Row | SMILES | effect on constraint stress-induced increase in DOPAC tissue level in prefrontal cortex (NK2 receptors [1]) | pKi [2] | pKi [3] | ED50, inhibition of contralateral rotations (NK3 receptor; intraperitoneal route) [mg per kg] | ED50, inhibition of contralateral rotations (NK3 receptor; oral route) [mg per kg] | effect on haloperidol-induced increase in number of spontaneously active dopaminergic neurons (A10 region) (NK3 receptors [4]) | effect on increase in release of acetylcholine in the hippocampus caused by an NK3 agonist (NK3 receptors [5]) | effect on constraint stress-induced increase in DOPAC tissue level in prefrontal cortex (NK2 receptors [6]) | effect on increase in release of acetylcholine in the hippocampus caused by an NK2 agonist (NK2 receptors [7]) | effective dose 50 (ED50), inhibition of contralateral rotations (NK2 receptor; intraperitoneal route) [mg per kg] | effective dose 50 (ED50), inhibition of contralateral rotations (NK2 receptor; oral route) [mg per kg]
1 | CC(=O)NC1(c2ccccc2)CCN(CC[C@H](CN(C)C(=O)c2ccccc2)c2ccc(Cl)c(Cl)c2)CC1 [saredutant] | blocked | – | – | – | – | – | – | – | – | – | –
2 | NC(=O)C1(N2CCCCC2)CCN(CCC2(c3ccc(Cl)c(Cl)c3)CN(C(=O)c3ccccc3)CCO2)CC1 (stereo not drawn) [compound α, 1-[2-[4-benzoyl-2-(3,4-dichlorophenyl)morpholin-2-yl]ethyl]-4-(piperidin-1-yl)piperidine-4-carboxamide, reference compound] | – | 8.70 | 10.40 | – | – | – | – | – | – | – | –
3 | CN(C)C(=O)C1(N2CCCCC2)CCN(CCC2(c3ccc(Cl)c(Cl)c3)CN(C(=O)c3ccccc3)CCO2)CC1 (single isomer, unassigned) [Example 1, N,N-Dimethyl-1-[2-[4-benzoyl-2-(3,4-dichloro-phenyl)morpholin-2-yl]ethyl]-4-(piperidin-1-yl)-piperidine-4-carboxamide dihydrochloride, dextrorotatory isomer] | – | 10.40 | 10.40 | 2.8 | 4.3 | blocks | blocks | completely blocks | blocks | 2.9 | 6.5

Source: patent US20080261976A1, “NOVEL PIPERIDINECARBOXAMIDE DERIVATIVES, METHOD FOR PREPARING SAME AND PHARMACEUTICAL COMPOSITIONS CONTAINING SAME” (SANOFI-AVENTIS, priority 2001, published 2008)
